Assay results from patent US5958770A, “Glycoalkaloids” (priority 1990, dated 1999).
pIC50: −log10 of the molar value.

Key:
tumour = details: cited from earlier work
ovarian cancer cells = test: Inhibition of tritiated thymidine uptake, ovarian cancer cells; details: read-out: LD50 (dose to inhibit 50% tritiated thymidine uptake); OvCa
Description: (§1) The inhibition of cell replication by steroid alkaloids is determined by the inhibition of the incorporation of ^3 H thymidine into DNA. Using this technique, it should be possible to monitor any preferential inhibition of uptake of ^3 H thymidine by cancer cells.
(§2) Cells were maintained as monolayers in RPM1-1640 tissue culture media (Grant Island Biological Co) buffered with N-2-hydroxy-ethylpiperazine-N-2-ethanesulphonic acid pH 7.5 and supplemented with 10% heat inactivated fetal calf serum (FCS): (i) a human ovarian cancer cell line (C180-135), (ii) HeLa cells, (iii) human fibroblasts, and (iv) as a cell suspension of lymphoblastoid cells (EBV transformed lymphocytes). Monolayers were trypsinized to form a cell suspension. […] Cell concentration was adjusted to 2×10^5 cells/ml, and 2×10^4 cells were added in replicates of 10 to the wells (1×10^5 /ml well) of HA microtitre plates (Millipore Corp., USA). The cells were preincubated at 37.5° C. for 7 hours prior to the addition of 50 μl of the cytotoxic drug followed by the addition of 50 μl 5 uCi/ml of ^3 H thymidine, in the same tissue culture media 21 hours later. Incubation was continued for a total of 24 hours, which includes the pre-incubation time.
(§3) Appropriate DMSO cytotoxicity studies were also conducted. Solasodine glycosides were supplied as a mixture (BEC), and as separate components, solamargine, solasonine, a mixture of di- and mono-glycosides and the aglycone solasodine. All cytotoxic drugs were further diluted with HIFCS/TCM before testing. 5×10^4 ovarian cancer cells (200 μl/chamber of a chamber of microscope slide (Lab Tek Miles Scientific) were used. Controls received 50 μl HIFCS/TCM and experimental chambers 50 μl of solasodine glycosides (BEC) 1.5-3.8 μM/L after 7 hrs preincubation, and incubated for a further 3 hrs. Similarly, the cells were treated with the aglycone solasodine 19.4-96.8 μM/L. The cells were fixed and examined by the Papanicolaou method.

[1] = tested on: ovarian cancer cells, HeLa cells, lymphoblastoid cells, fibroblasts; test: Cytotoxicity / inhibition of tritiated thymidine uptake, cell types taken together; details: normal versus cancer cells
Description: as §1, §2, §3

[2] = Inhibition of tritiated thymidine uptake, unstimulated lymphocytes; details: human, unstimulated lymphocytes
Description: (§4) This was cultured for 48 hours and pulsed with tritiated thymidine for a further 24 hours. In the inhibition studies, the cell concentration was 8×10^5 /ml.
(§5) All cells were harvested by vacuum filtration by washing in 250 μl of each of phosphate buffered saline, 5% trichloroacetic acid, 1.0M NaCl and 95% ethanol and subjected to β-scintillatian counting. Similarly, peripheral human blood lymphocytes were isolated and cultured 2×10^5 lymphocytes in CO2 1640TCM 10% HIFCS. Lymphocytes were stimulated with 20 μg/ml PHA, Con A or PWM, and cultured for 48 hrs followed by a 24 hr pulse. […] Cell concentrations were 8×10^4 /well total volume 250 μl. The dpm of the experimental replicates were expressed as a percentage of the mean value of the controls, and the mean value of the experimental replicates calculated.

[3] = Inhibition of tritiated thymidine uptake, PHA stimulated lymphocytes; details: human, pha stimulated lymphocytes
Description: as §4, §5

HeLa cells = test: cells
Description: as §1, §2, §3

[4] = tested on: lymphoblastoid cells (EBV transformed lymphocytes); test: cells
Description: as §1, §2, §3

human fibroblasts = test: cells; details: FB; NSE = no significant effect
Description: as §1, §2, §3

[5] = Inhibition of tritiated thymidine uptake, Con A stimulated lymphocytes; details: human, con a stimulated lymphocytes
Description: as §4, §5

[6] = Inhibition of tritiated thymidine uptake, PWM stimulated lymphocytes; details: human, pwm stimulated lymphocytes
cancer = details: rats; cited from earlier work

**Q.** For C[C@H]1CC[C@]2(NC1)O[C@H]1C[C@H]3[C@@H]4CC=C5C[C@@H](O[C@@H]6O[C@H](CO)[C@@H](O[C@@H]7O[C@@H](C)[C@H](O)[C@@H](O)[C@H]7O)[C@H](O)[C@H]6O[C@@H]6O[C@@H](C)[C@H](O)[C@@H](O)[C@H]6O)CC[C@]5(C)[C@H]4CC[C@]3(C)[C@H]1[C@@H]2C [B-solamarine], which “tumour inhibition” value (tumour) is on record?
**A.** tumour inhibitor

**Q.** What does the source list for O=C(O)CCCc1ccc(N(CCCl)CCCl)cc1 [chlorambucil, reference compound]?
**A.** pIC50 (ovarian cancer cells): 4.22; cytotoxicity to normal cells relative to cancer cells [1]: equally or more cytotoxic to normal cells relative to cancer cells; CC50 [2]: 33 µM; CC50 [3]: 24.6 µM; TR50 (thymidine ratio relative to ovarian cancer cells) (HeLa cells; HeLa / OvCa): 0.79; pIC50 (HeLa cells; read-out: LD50 (dose to inhibit 50% tritiated thymidine uptake), HeLa): 4.32; TR50 (thymidine ratio relative to ovarian cancer cells) ([4]; LCL / OvCa): 0.45; pIC50 ([4]; read-out: LD50 (dose to inhibit 50% tritiated thymidine uptake), LCL): 4.57; LD50 (dose to inhibit 50% tritiated thymidine uptake) (human fibroblasts): NSE; CC50 [5]: 33 µM; CC50 [6]: 22 µM

**Q.** For “rhamnosyl [4→3] Solasodine [Solaplumbin]”, which “anticancer properties” value (cancer) is on record?
**A.** anticancer properties in rats
